Test results as given in patent US7528144B2, “Molecules and methods for fluorescence microscopy” (WiSys Technology Foundation, Inc., priority 2005, dated 2009).

Tested on: THP-1 cells
Experiment: Photobleaching under repeated exposures in cells
Assay type: cell-based
Settings: 75-200 nM, repeated CCD exposures (FIG. 25)
Experimental: FIG. 25 depicts (A) InstantLyso LLT-1 at 75 nM in THP-1 cells. Exposures were taken every 30 seconds (with consistent CCD exposure length 7.5 seconds) with blue excitation cube (490 nm maximum).; (B) InstantGolgi McN-1 at 200 nm in THP-1 cells. Exposures were taken with consistent CCD exposure length with purple excitation cube.; (C) InstantLipo Sep-1at 200 nm in THP-1 cells. Exposures were taken with consistent CCD exposure length with purple excitation cube; and (D) Lysotracker Red at 75 nM in THP-1 cells. Exposures were taken every 5 seconds (with consistent CCD exposure length) with green excitation cube. Unretouched, unprocessed images.
The dyes of the present invention hold up well to photobleaching relative to the time needed to take most fluorescence shots (a few seconds).

Q: How did the resistance to photobleaching turn out when `CCCCCCN1C(=O)c2cccc3c(NCCN)ccc(c23)C1=O` [InstantLyso LLT-1, 6-(2-aminoethyl)amino-2-hexyl-1H-benz[de]isoquinoline-1,3-(2H)-dione] was run?
A: holds up much better than the others
